Values quoted from earlier work as cited in patent publication US8221746B2, “Antioxidant for use in cosmetic, medicated and pharmaceutical preparations” (priority 2008, dated 2012).

Tests used:
[1] = tested on: photodamage of facial skin; details: topical, 3 months
photoaging of the face = details: topical, 12 weeks, vs placebo gel

O=C1O[C@H]([C@@H](O)CO)C(O)=C1O [vitamin C]
patient questionnaire overall improvement greater than control [1]: 84.2%
photographic assessment improvement greater than the improvement in the control group [1]: 57.9%
combined score improvement, optical image analysis of skin surface ([1]; compared to placebo-vehicle side of face): 71%
clinical improvement in wrinkling (in words) (photoaging of the face): clinically visible and statistically significant improvement in wrinkling
